Melting point and IC50 data for 28 molecules are collected here from patent US9216991B2 (Ares Trading S.A., priority 2012, dated 2015).

Where a name gives a salt, the structure may show the parent alone.

System in the first data set: not given
Experiment: not given
Details: not given
What is called melting point is the temperature of the solid-liquid transition. With `Cn1cc(-c2cccc(-c3ncc(-c4cnn(CC(=O)N5CCC(O)C5)c4)cn3)c2)cn1` (stereo not shown) [Example 74, 1-(3-Hydroxy-pyrrolidin-1-yl)-2-(4-{2-[3-(1-methyl-1H-pyrazol-4-yl)-phenyl]-pyrimidin-5-yl}-pyrazol-1-yl)-ethanone], the melting point is 237 to 238 °C.
Turning to `Cn1cc(-c2cccc(-c3ncc(-c4cnn([C@H]5CCCNC5)c4)cn3)c2)cn1` [Example 283, 2-[3-(1-Methyl-1H-pyrazol-4-yl)-phenyl]-5-((S)-1-piperidin-3-yl-1H-pyrazol-4-yl)-pyrimidine], the melting point was 175.8 to 180.6 °C.
Consider `Cn1cc(-c2cccc(-c3ncc(-c4cnn(CCO)c4)cn3)c2)cn1` [Example 23, 2-(4-{2-[3-(1-Methyl-1H-pyrazol-4-yl)-phenyl]-pyrimidin-5-yl}-pyrazol-1-yl)-ethanol], for which the melting point fell in the range of 234 to 236 °C.
Molecule `CN1CC2CC1CN2C(=O)[C@H]1CC[C@H](n2cc(-c3cnc(-c4cccc(-c5cnn(C)c5)c4)nc3)cn2)CC1` (stereo partly drawn) (as salt: hydrobromid) [Example 278, (5-Methyl-2,5-diaza-bicyclo[2.2.1]hept-2-yl)-trans-[4-(-4-{2-[3-(1-methyl-1H-pyrazol-4-yl)-phenyl]-pyrimidin-5-yl}-pyrazol-1-yl)-cyclohexyl]-methanone hydrobromide] displayed a melting point of 50.3 to 55 °C.

For another data set, the target named is T1, IRAK4 (Homo sapiens, UniProt Q9NWZ3).
T1 construct: His (N); TEV cleavage site (N)
T1 sequence (Q9NWZ3 1-460): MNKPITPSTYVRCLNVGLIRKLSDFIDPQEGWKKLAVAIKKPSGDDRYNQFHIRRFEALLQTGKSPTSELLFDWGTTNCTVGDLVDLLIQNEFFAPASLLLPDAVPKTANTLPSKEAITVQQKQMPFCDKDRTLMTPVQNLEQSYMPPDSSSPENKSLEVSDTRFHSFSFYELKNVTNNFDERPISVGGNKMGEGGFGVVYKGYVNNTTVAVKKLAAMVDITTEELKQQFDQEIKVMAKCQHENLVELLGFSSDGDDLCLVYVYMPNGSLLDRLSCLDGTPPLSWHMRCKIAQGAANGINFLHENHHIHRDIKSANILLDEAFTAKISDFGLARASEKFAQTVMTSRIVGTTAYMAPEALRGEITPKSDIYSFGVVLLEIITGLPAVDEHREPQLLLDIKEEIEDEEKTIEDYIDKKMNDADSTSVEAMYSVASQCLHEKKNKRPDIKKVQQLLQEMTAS
In words: IRAK4 Enzymatic Assay. The class given is biochemical. Particulars: His-TEV-IRAK4 20 ng/well, ATP 2 μM, STK1-biotin peptide 300 nM, 3 hours at 30° C., FlashPlate radioactivity. Put shortly:
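Radiometric FlashPlate readout: biotin-STK1 substrate (300 nM) captured on streptavidin after EDTA stop and washes. Reaction used His-TEV-IRAK4 (20 ng/well), 2 μM [^33P]-spiked ATP and compound (1 nM-20 μM), incubated 3 h at 30 °C in 50 mM HEPES pH 7.0, 10 mM MgCl2, 5 mM MnCl2, 2 mM DTT.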
As usually defined, the IC50 is the midpoint of a concentration-inhibition curve. On to `Cn1cc(-c2cccc(-c3ncc(-c4cnn(CC(=O)N5CCC(O)C5)c4)cn3)c2)cn1` (stereo not shown) [Example 74, 1-(3-Hydroxy-pyrrolidin-1-yl)-2-(4-{2-[3-(1-methyl-1H-pyrazol-4-yl)-phenyl]-pyrimidin-5-yl}-pyrazol-1-yl)-ethanone], for which the IC50 fell in the range of 0.1 to 1 µM.
Still for that read-out and setting: the same measure for `Cn1cc(-c2cccc(-c3ncc(-c4cnn([C@H]5CCCNC5)c4)cn3)c2)cn1` [Example 283, 2-[3-(1-Methyl-1H-pyrazol-4-yl)-phenyl]-5-((S)-1-piperidin-3-yl-1H-pyrazol-4-yl)-pyrimidine]: under 0.1 µM; for `Cn1cc(-c2cccc(-c3ncc(-c4cnn(CCO)c4)cn3)c2)cn1` [Example 23, 2-(4-{2-[3-(1-Methyl-1H-pyrazol-4-yl)-phenyl]-pyrimidin-5-yl}-pyrazol-1-yl)-ethanol]: 0.1 to 1 µM.
Turning to `CC(=O)N1CCC(n2cc(-c3cnc(-c4cccc(-c5cnn(C)c5)c4)nc3)cn2)C(F)C1` (stereo not drawn) [Example 263, Cis-1-[3-Fluoro-4-(4-{2-[3-(1-methyl-1H-pyrazol-4-yl)-phenyl]-pyrimidin-5-yl}-pyrazol-1-yl)-piperidin-1-yl]-ethanone], the IC50 is under 0.1 µM.
As for `CC(C(=O)N1CCOCC1)n1cc(-c2cnc(-c3cccc(-c4cnn(C)c4)c3)nc2)cn1` (stereo not shown) [Example 103, 2-(4-{2-[3-(1-Methyl-1H-pyrazol-4-yl)-phenyl]-pyrimidin-5-yl}-pyrazol-1-yl)-1-morpholin-4-yl-propan-1-one], the IC50 was 1 to 5 µM.
Same read-out and setting: the same measure for `COCCC1CN(C(=O)Cn2cc(-c3cnc(-c4cccc(-c5cnn(C)c5)c4)nc3)cn2)CCO1` (stereo not shown) [Example 87, 1-[2-(2-Methoxy-ethyl)-morpholin-4-yl]-2-(4-{2-[3-(1-methyl-1H-pyrazol-4-yl)-phenyl]-pyrimidin-5-yl}-pyrazol-1-yl)-ethanone]: 0.1 to 1 µM; for `CC(=O)N1[C@@H]2CC[C@H]1CC(n1cc(-c3cnc(-c4cccc(-c5cnn(C)c5)c4)nc3)cn1)C2` (stereo partly drawn) [Example 119, 1-[(1R,5S)-3-(4-{2-[3-(1-Methyl-1H-pyrazol-4-yl)-phenyl]-pyrimidin-5-yl}-pyrazol-1-yl)-8-aza-bicyclo[3.2.1]oct-8-yl]-ethanone]: 0.1 to 1 µM; for `Cn1cc(-c2cccc(-c3ncc(-c4cnn(C5CCCNCC5)c4)cn3)c2)cn1` (stereo not shown) [Example 172, 4-(4-{2-[3-(1-Methyl-1H-pyrazol-4-yl)-phenyl]-pyrimidin-5-yl}-pyrazol-1-yl)-azepane]: under 0.1 µM.
As for `Cn1cc(-c2cccc(-c3ncc(-c4cnn(C5CCC(C(=O)N6CCO[C@@H](CO)C6)CC5)c4)cn3)c2)cn1` (stereo partly drawn) [Example 266, ((R)-2-Hydroxymethyl-morpholin-4-yl)-[4-((S)-4-{2-[3-(1-methyl-1H-pyrazol-4-yl)-phenyl]-pyrimidin-5-yl}-pyrazol-1-yl)-cyclohexyl]-methanone], the IC50 was under 0.1 µM.
For the molecule `Cn1cc(-c2cccc(-c3ncc(-c4cnn(C5CCSC5)c4)cn3)c2)cn1` (stereo not shown) [Example 216, 2-[3-(1-Methyl-1H-pyrazol-4-yl)-phenyl]-5-[1-(tetrahydro-thiophen-3-yl)-1H-pyrazol-4-yl]-pyrimidine], the IC50 fell in the range of 0.1 to 1 µM.
The same measure, in the same setting: the same measure for `Cn1cc(-c2cccc(-c3ncc(-c4cnn([C@H]5CC[C@@H](N6CCOCC6)CC5)c4)cn3)c2)cn1` [Example 209, cis-4-[4-(4-{2-[3-(1-Methyl-1H-pyrazol-4-yl)-phenyl]-pyrimidin-5-yl}-pyrazol-1-yl)-cyclohexyl]-morpholine]: 1 to 5 µM.
`O=C(Cn1cc(-c2cnc(-c3cccc(-c4cnn(CCO)c4)c3)nc2)cn1)N1CCCC1` [Example 59, 2-[4-(2-{3-[1-(2-Hydroxy-ethyl)-1H-pyrazol-4-yl]-phenyl}-pyrimidin-5-yl)-pyrazol-1-yl]-1-pyrrolidin-1-yl-ethanone]: the IC50 lay within 1 to 5 µM.
The same measure, in the same setting: next, `FCC(CF)n1cc(-c2cccc(-c3ncc(-c4cnn(C5CCNCC5)c4)cn3)c2)cn1` [Example 16, 2-{3-[1-(2-Fluoro-1-fluoromethyl-ethyl)-1H-pyrazol-4-yl]-phenyl}-5-(1-piperidin-4-yl-1H-pyrazol-4-yl)-pyrimidine hydrochloride]: 0.1 to 1 µM; `Cn1cc(-c2cccc(-c3ncc(-c4cnn(CC(=O)N5CCCOCC5)c4)cn3)c2)cn1` [Example 93, 2-(4-{2-[3-(1-Methyl-1H-pyrazol-4-yl)-phenyl]-pyrimidin-5-yl}-pyrazol-1-yl)-1-[1,4]oxazepan-4-yl-ethanone]: 0.1 to 1 µM; `Cn1cc(-c2cccc(-c3ncc(-c4cnn(C5CCNCC5F)c4)cn3)c2)cn1` (stereo not drawn) [Example 30, trans-5-[1-(3-Fluoro-piperidin-4-yl)-1H-pyrazol-4-yl]-2-[3-(1-methyl-1H-pyrazol-4-yl)-phenyl]-pyrimidine hydrochloride]: 0.1 to 1 µM.
Still for that read-out and setting: next, `CC(=O)N1CCC(n2cc(-c3cnc(-c4cccc(-c5cnn(C)c5)c4)nc3)cn2)CC1` [Example 5, 1-[4-(4-{2-[3-(1-Methyl-1H-pyrazol-4-yl)-phenyl]-pyrimidin-5-yl}-pyrazol-1-yl)-piperidin-1-yl]-ethanone]: under 0.1 µM.
Turning to `O=C(Cn1cc(-c2cccc(-c3ncc(-c4cnn(C5CCNCC5)c4)cn3)c2)cn1)N1CCCC1` [Example 17, 2-(4-{3-[5-(1-Piperidin-4-yl-1H-pyrazol-4-yl)-pyrimidin-2-yl]-phenyl}-pyrazol-1-yl)-1-pyrrolidin-1-yl-ethanone hydrochloride], the IC50 is 1 to 5 µM.
For the molecule `Cn1cc(-c2cccc(-c3ncc(-c4cnn([C@H]5CC[C@H](C(=O)NC(C)(C)CO)CC5)c4)cn3)c2)cn1` [Example 213, trans-4-(4-{2-[3-(1-Methyl-1H-pyrazol-4-yl)-phenyl]-pyrimidin-5-yl}-pyrazol-1-yl)-cyclohexanecarboxylic acid (2-hydroxy-1,1-dimethyl-ethyl)-amide], the IC50 was under 0.1 µM.
On to `CCOCC(=O)N1CCC(n2cc(-c3cnc(-c4cccc(-c5cnn(C)c5)c4)nc3)cn2)CC1` [Example 111, 2-Ethoxy-1-[4-(4-{2-[3-(1-methyl-1H-pyrazol-4-yl)-phenyl]-pyrimidin-5-yl}-pyrazol-1-yl)-piperidin-1-yl]-ethanone], for which the IC50 fell in the range of 0.1 to 1 µM.
For `Cn1cc(-c2cccc(-c3ncc(-c4cnn(CC5CNCCO5)c4)cn3)c2)cn1` (stereo not shown) [Example 41, 2-(4-{2-[3-(1-Methyl-1H-pyrazol-4-yl)-phenyl]-pyrimidin-5-yl}-pyrazol-1-ylmethyl)-morpholine hydrochloride], the half-inhibitory concentration (IC50) fell in the range of 0.1 to 1 µM.
Turning to `Cc1ncc(-c2cccc(-c3ncc(-c4cnn(CC(=O)N5CCCC5)c4)cn3)c2)s1` [Example 56, 2-(4-{2-[3-(2-Methyl-thiazol-5-yl)-phenyl]-pyrimidin-5-yl}-pyrazol-1-yl)-1-pyrrolidin-1-yl-ethanone], the IC50 lay within 0.1 to 1 µM.
For `Cn1cc(-c2cccc(-c3ncc(-c4cnn([C@@H]5CCCNC5)c4)cn3)c2)cn1` [Example 183, 2-[3-(1-Methyl-1H-pyrazol-4-yl)-phenyl]-5-((R)-1-piperidin-3-yl-1H-pyrazol-4-yl)-pyrimidine], the IC50 fell in the range of 0.1 to 1 µM.
The same measure, in the same setting: the same measure for `CC(=O)N1CCCC(n2cc(-c3cnc(-c4cccc(-c5cnn(C)c5)c4)nc3)cn2)CC1` (stereo not shown) [Example 223, 1-[4-(4-{2-[3-(1-Methyl-1H-pyrazol-4-yl)-phenyl]-pyrimidin-5-yl}-pyrazol-1-yl)-azepan-1-yl]-ethanone]: 0.1 to 1 µM; for `Cn1cc(-c2cccc(-c3ncc(-c4cnn([C@H]5C=C[C@@H](O)C5)c4)cn3)c2)cn1` [Example 231, (1S,4R)-4-[4-[2-[3-(1-methylpyrazol-4-yl)phenyl]pyrimidin-5-yl]pyrazol-1-yl]cyclopent-2-en-1-ol]: 0.1 to 1 µM.
In the case of `Cn1cc(-c2cccc(-c3ncc(-c4cnn(C5CCN(C(=O)C(F)(F)F)CC5)c4)cn3)c2)cn1` [Example 4, 2,2,2-Trifluoro-1-[4-(4-{2-[3-(1-methyl-1H-pyrazol-4-yl)-phenyl]-pyrimidin-5-yl}-pyrazol-1-yl)-piperidin-1-yl]-ethanone], the IC50 lay in the range of 0.1 to 1 µM.
With `COCCn1cc(-c2cnc(-c3cccc(-c4cnn(C)c4)c3)nc2)cn1` [Example 98, 5-[1-(2-Methoxy-ethyl)-1H-pyrazol-4-yl]-2-[3-(1-methyl-1H-pyrazol-4-yl)-phenyl]-pyrimidine], the IC50 was in the range of 0.1 to 1 µM.
The same measure, in the same setting: next, `CC(C)[C@H](CO)NC(=O)[C@H]1CC[C@H](n2cc(-c3cnc(-c4cccc(-c5cnn(C)c5)c4)nc3)cn2)CC1` [Example 163, Trans-4-(4-{2-[3-(1-Methyl-1H-pyrazol-4-yl)-phenyl]-pyrimidin-5-yl}-pyrazol-1-yl)-cyclohexanecarboxylic acid ((R)-1-hydroxymethyl-2-methyl-propyl)-amide]: 0.1 to 1 µM.
